For eight compounds, inhibition results are on record in patent US9187471B2, “Pyrido [4,3-b] indole and pyrido [3,4-b] indole derivatives and methods of use” (Medivation Technologies, Inc., priority 2010, dated 2015).

Experiment [1] deals with T1, human recombinant serotonin (5-Hydroxytryptamine) 5-HT7 receptor (Homo sapiens, UniProt P34969).
T1 construct: expressed in transfected cells; host or cells: CHO
Description: Serotonin 5-HT7 radioligand binding ([3H]LSD). The note with it: compound at 0.1 μM; read-out: Inhibition of ligand binding, Serotonin 5-HT7 (percent inhibition of specific binding). Here is the method: Lysergic acid diethylamide (LSD) for 120 min. at 25° C. […] Receptor proteins were filtered and washed, the filters were then counted to determine [^3H]LSD specifically bound.

Experiment [2] has as its target T2, human recombinant serotonin (5-Hydroxytryptamine) 5-HT5A receptor (Homo sapiens, UniProt P47898).
T2 construct: expressed in transfected cells; host or cells: CHO-K1
Description: Serotonin 5-HT5A radioligand binding ([3H]LSD). The following applies: compound at 0.1 μM; read-out: Inhibition of ligand binding, Serotonin 5-HT5A (percent inhibition of specific binding). Here is the method:
Compounds of the invention were incubated with 1.7 nM [^3H]Lysergic acid diethylamide (LSD) for 60 min at 37° C. […] Receptor proteins were filtered and washed, the filters were counted to determine [^3H]LSD specifically bound.

For experiment [3], the target named is T3, human recombinant histamine H1 receptor (Homo sapiens, UniProt P35367).
T3 construct: expressed in transfected cells; host or cells: CHO-K1
T3 sequence (P35367 whole entry): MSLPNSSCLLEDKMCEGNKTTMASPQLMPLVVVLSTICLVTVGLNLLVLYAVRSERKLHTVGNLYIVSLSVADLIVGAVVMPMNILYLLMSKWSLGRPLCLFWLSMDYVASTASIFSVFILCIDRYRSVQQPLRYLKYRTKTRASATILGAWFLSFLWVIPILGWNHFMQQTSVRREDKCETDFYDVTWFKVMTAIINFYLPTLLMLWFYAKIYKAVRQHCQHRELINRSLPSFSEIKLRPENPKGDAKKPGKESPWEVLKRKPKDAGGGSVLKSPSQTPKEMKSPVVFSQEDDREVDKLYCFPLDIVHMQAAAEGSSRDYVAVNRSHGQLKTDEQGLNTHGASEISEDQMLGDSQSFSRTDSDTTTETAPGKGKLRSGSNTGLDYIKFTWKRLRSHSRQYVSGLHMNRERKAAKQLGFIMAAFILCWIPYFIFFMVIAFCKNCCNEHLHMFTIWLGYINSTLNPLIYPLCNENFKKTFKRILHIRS
Description: Histamine H1 radioligand binding ([3H]Pyrilamine). The following applies: read-out: Histamine H1 Binding (1 μM), percent inhibition of specific binding; compound at 1 μM; 1.2 nM [3H]Pyrilamine. The method, boiled down:
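Results expressed as percent inhibition of specific [3H]pyrilamine binding, counted on filters after washing. Receptor source: CHO-K1 cells expressing recombinant human H1, in modified Tris-HCl buffer (50 mM, pH 7.4; 2 mM MgCl2, 100 mM NaCl, 250 mM sucrose). 1 μM pyrilamine defined non-specific binding.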

For experiment [4], the target named is T4, human recombinant serotonin (5-Hydroxytryptamine) 5-HT6 receptor (Homo sapiens, UniProt P50406).
T4 construct: expressed in transfected cells; host or cells: HeLa
T4 sequence (P50406 whole entry): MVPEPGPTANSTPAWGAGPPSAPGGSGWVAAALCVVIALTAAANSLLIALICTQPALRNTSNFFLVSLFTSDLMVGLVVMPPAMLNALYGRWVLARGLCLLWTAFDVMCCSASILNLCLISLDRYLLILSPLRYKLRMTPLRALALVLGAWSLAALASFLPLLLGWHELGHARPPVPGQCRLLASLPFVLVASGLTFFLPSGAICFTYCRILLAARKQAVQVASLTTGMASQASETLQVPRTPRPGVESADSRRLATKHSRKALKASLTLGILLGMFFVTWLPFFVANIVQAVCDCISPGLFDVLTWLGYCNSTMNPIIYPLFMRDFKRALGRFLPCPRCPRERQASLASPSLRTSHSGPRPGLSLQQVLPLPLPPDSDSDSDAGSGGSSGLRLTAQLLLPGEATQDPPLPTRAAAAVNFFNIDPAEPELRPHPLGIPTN
Briefly: Serotonin 5-HT6 radioligand binding ([3H]LSD). The note with it: compound at 0.1 μM; read-out: Inhibition of ligand binding, Serotonin 5-HT6 (percent inhibition of specific binding). The source says: Receptor proteins were filtered and washed, the filters were then counted to determine [3H]LSD specifically bound.

The target of experiment [5] is T5, human recombinant adrenergic α2C receptor (Homo sapiens, UniProt P18825).
T5 construct: expressed in transfected cells; host or cells: insect Sf9 cells
T5 sequence (P18825 1-462): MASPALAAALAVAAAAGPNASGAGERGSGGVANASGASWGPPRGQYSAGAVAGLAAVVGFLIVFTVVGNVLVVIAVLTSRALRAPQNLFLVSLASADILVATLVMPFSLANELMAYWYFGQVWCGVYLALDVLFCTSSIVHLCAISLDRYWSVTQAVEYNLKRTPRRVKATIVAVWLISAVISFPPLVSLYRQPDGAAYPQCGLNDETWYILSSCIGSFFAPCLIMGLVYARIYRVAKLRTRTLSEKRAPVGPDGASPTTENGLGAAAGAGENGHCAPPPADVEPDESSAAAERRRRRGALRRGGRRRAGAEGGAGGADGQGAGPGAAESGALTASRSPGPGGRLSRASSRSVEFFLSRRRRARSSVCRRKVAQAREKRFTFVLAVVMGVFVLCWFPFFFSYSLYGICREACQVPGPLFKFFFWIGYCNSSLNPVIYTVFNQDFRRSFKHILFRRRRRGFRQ
Briefly: Adrenergic α2C radioligand binding ([3H]MK-912). The note with it: read-out: Adrenergic (0.1 μM) a2C, percent inhibition of specific binding; compound at 0.1 μM; 1 nM [3H]MK-912. The method, boiled down:
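Membranes from Sf9 cells expressing the human receptor, in 50 mM Tris-HCl pH 7.4 with 12.5 mM MgCl2 and 2 mM EDTA, incubated with compound and 1 nM [3H]MK-912 for 60 min at 25 °C. Non-specific binding defined with 10 μM WB-4101. Filter-bound radioactivity counted; percent inhibition of specific binding reported.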

For experiment [6], the target named is T6, human recombinant serotonin (5-Hydroxytryptamine) 5-HT2A receptor (Homo sapiens, UniProt P28223).
T6 construct: expressed in transfected cells; host or cells: CHO-K1
T6 sequence (P28223 whole entry): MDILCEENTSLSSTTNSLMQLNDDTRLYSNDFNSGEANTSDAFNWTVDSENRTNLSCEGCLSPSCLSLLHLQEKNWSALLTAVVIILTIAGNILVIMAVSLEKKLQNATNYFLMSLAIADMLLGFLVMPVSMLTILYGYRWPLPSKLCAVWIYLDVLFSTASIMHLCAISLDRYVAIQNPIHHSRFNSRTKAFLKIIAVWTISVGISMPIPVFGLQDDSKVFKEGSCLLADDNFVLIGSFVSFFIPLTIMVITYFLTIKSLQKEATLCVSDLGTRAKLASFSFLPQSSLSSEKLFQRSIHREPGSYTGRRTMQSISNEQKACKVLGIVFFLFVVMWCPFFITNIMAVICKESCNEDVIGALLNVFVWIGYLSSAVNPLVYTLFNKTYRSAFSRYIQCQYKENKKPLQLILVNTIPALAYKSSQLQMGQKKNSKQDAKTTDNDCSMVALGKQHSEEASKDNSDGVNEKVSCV
Briefly: Serotonin 5-HT2A radioligand binding ([3H]Ketanserin). The note with it: compound at 0.1 μM; read-out: Inhibition of ligand binding, Serotonin 5-HT2A (percent inhibition of specific binding). Here is the method:
Compounds of the invention were incubated with 0.5 nM [^3H]Ketanserin for 60 min at 25° C. Non-specific binding was estimated in the presence of 1 μM Mianserin. Receptor proteins were filtered and washed, the filters were then counted to determine [^3H]Ketanserin specifically bound.

In experiment [7] the target is T7, human recombinant serotonin (5-Hydroxytryptamine) 5-HT2C receptor (Homo sapiens, UniProt P28335).
T7 construct: expressed in transfected cells; host or cells: CHO-K1
T7 sequence (P28335 33-458): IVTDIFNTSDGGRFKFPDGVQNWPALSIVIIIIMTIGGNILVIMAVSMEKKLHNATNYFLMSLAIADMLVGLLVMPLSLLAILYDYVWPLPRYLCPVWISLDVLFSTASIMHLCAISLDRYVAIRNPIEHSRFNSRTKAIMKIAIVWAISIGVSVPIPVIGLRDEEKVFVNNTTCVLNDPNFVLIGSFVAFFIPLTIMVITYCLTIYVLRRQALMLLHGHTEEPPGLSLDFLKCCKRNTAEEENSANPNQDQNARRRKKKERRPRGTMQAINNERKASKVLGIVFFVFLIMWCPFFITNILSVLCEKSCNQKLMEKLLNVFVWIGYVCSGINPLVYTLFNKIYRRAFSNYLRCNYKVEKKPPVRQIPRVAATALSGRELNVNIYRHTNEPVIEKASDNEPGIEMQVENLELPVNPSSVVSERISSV
Briefly: Serotonin 5-HT2C radioligand binding ([3H]Mesulergine). The note with it: compound at 0.1 μM; read-out: Inhibition of ligand binding, Serotonin 5-HT2C (percent inhibition of specific binding). As for the experimental part: Compounds of the invention were incubated with 1 nM [^3H]Mesulergine for 60 min at 25° C. Non-specific binding was estimated in the presence of 1 μM Mianserin. Receptor proteins were filtered and washed, the filters were then counted to determine [^3H]Mesulergine specifically bound.

T1 sequence (P34969 whole entry): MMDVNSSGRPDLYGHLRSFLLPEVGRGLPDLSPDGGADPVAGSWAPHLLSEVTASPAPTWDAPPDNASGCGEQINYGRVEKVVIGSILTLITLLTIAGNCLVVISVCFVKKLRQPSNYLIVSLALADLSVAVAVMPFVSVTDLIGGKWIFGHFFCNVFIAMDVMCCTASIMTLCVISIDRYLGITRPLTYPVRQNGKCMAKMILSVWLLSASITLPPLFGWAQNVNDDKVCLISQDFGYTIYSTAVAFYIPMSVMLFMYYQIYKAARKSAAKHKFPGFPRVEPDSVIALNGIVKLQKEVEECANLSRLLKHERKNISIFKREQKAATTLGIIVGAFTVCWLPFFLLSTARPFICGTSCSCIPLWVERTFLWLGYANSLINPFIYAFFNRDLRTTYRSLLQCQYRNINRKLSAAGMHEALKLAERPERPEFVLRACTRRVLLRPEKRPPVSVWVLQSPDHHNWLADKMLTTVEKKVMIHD
T2 sequence (P47898 whole entry): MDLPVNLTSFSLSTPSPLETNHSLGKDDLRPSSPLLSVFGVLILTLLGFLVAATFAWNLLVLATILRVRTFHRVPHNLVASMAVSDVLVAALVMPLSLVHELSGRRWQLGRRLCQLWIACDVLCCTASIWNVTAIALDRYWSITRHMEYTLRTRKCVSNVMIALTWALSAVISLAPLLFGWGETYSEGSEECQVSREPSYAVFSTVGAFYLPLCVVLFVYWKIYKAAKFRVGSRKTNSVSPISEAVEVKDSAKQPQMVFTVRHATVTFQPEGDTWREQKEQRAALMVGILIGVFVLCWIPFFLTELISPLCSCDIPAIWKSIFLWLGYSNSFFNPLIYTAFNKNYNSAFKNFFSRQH

Consider `Cc1ccc2c(c1)c1c(n2-c2ccccc2-c2cccc3[nH]ncc23)CCN(C)C1` [Compound No. 105, 5-(2-(1H-indazol-4-yl)phenyl)-2,8-dimethyl-2,3,4,5-tetrahydro-1H-pyrido[4,3-b]indole], for which the inhibition (commonly the change of the read-out against control, counted positive when it falls) at 0.1 µM came to 54% in experiment [1]; 56% in experiment [2]; 40% in experiment [4]; 45% in experiment [5]; 94% in experiment [6]; 82% in experiment [7]. In addition, the inhibition at 1 µM in experiment [3] amounted to 34%.
Turning to `Cc1ccc2c(c1)c1c(n2-c2ccccc2-c2cnn(C)c2)CCN(C)C1` [Compound No. 86, 2,8-dimethyl-5-(2-(1-methyl-1H-pyrazol-4-yl)phenyl)-2,3,4,5-tetrahydro-1H-pyrido[4,3-b]indole], the inhibition at 0.1 µM stood at 53% in experiment [1]; 37% in experiment [2]; 11% in experiment [4]; 0% in experiment [5]; 94% in experiment [6]; 71% in experiment [7]. For the same compound, in experiment [3], the inhibition at 1 µM was determined as 47%.
As for `Cc1ccc2c(c1)c1c(n2-c2cnc3ccccc3c2)CCN(C)C1` [Compound No. 88, 2,8-dimethyl-5-quinolin-3-yl-2,3,4,5-tetrahydro-1H-pyrido[4,3-b]indole], the inhibition at 0.1 µM in experiment [1] is 13%; in experiment [2], 22%; in experiment [4], 4%; in experiment [5], 4%; in experiment [6] it was 93%; in experiment [7], 90%. For the same compound, the inhibition at 1 µM in experiment [3] came to 18%.
For `Cc1ccc2c(c1)c1c(n2-c2ccccc2-c2cn[nH]c2)CCN(C)C1` [Compound No. 104, 5-(2-(1H-pyrazol-4-yl)phenyl)-2,8-dimethyl-2,3,4,5-tetrahydro-1H-pyrido[4,3-b]indole], the inhibition at 0.1 µM is 27% in experiment [1]; 20% in experiment [2]; 10% in experiment [4]; 1% in experiment [5]; 57% in experiment [6]; 77% in experiment [7]. Also, the inhibition at 1 µM in experiment [3] is 24%.
Regarding `Cc1ccc2c(c1)c1c(n2-c2ccccc2-c2cc3ccccc3s2)CCN(C)C1` [Compound No. 103, 5-(2-(benzo[b]thiophen-2-yl)phenyl)-2,8-dimethyl-2,3,4,5-tetrahydro-1H-pyrido[4,3-b]indole], the inhibition at 0.1 µM in experiment [1] stood at 39%; in experiment [2] it was 42%; in experiment [4], 20%; in experiment [5], 69%; in experiment [6], 24%; in experiment [7] it was 43%. The inhibition at 1 µM in experiment [3] was 10%.
In the case of `Cc1ccc2c(c1)c1c(n2-c2ccccc2-c2sccc2C)CCN(C)C1` [Compound No. 102, 2,8-dimethyl-5-(2-(3-methylthiophen-2-yl)phenyl)-2,3,4,5-tetrahydro-1H-pyrido[4,3-b]indole], the inhibition at 0.1 µM stood at 34% in experiment [1]; 10% in experiment [2]; 42% in experiment [4]; 43% in experiment [5]; 92% in experiment [6]; 90% in experiment [7]. In experiment [3], the inhibition at 1 µM was 57%.
Consider `Cc1ccc2c(c1)c1c(n2-c2ccccc2-c2cncc3ccccc23)CCN(C)C1` [Compound No. 87, 5-(2-(isoquinolin-4-yl)phenyl)-2,8-dimethyl-2,3,4,5-tetrahydro-1H-pyrido[4,3-b]indole], for which the inhibition at 0.1 µM in experiment [1] was 14%; in experiment [2], 24%; in experiment [4] it was 13%; in experiment [5], -6%; in experiment [6], 70%; in experiment [7] it was 66%. For the same compound, the inhibition at 1 µM in experiment [3] worked out at 47%.
For `Cc1ccc2c(c1)c1c(n2-c2ccccc2-c2cccn2C)CCN(C)C1` [Compound No. 100, 2,8-dimethyl-5-(2-(1-methyl-1H-pyrrol-2-yl)phenyl)-2,3,4,5-tetrahydro-1H-pyrido[4,3-b]indole], the inhibition at 0.1 µM in experiment [1] was 48%; in experiment [2], 11%; in experiment [4], 26%; in experiment [5], 66%; in experiment [6] it was 74%; in experiment [7], 72%. Also, the inhibition at 1 µM in experiment [3] worked out at 36%.
